Like-named read-outs stand apart in the source and are kept apart here.
Assays:
[1] = target: T1, human BRD4 bromodomain II (Homo sapiens, UniProt O60885); experiment: Bromodomain binding assay (AlphaScreen), BRD4 BDII
T1 construct: human BRD4 bromodomain II [based on Genbank NM_058243, residues 349-460]; host or cells: E. coli
In short: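 Compounds (10-point, 3-fold series) were preincubated 30 min at room temperature with E. coli-expressed N-terminal His6-tagged BRD4 BDII (residues 349-460) or BDI (residues 44-170) in 50 mM HEPES pH 7.5, 100 mM NaCl, 0.05% CHAPS, 0.1% BSA, 1% DMSO. Displacement of biotinylated tetra-acetylated H4 1-21 peptide was read by AlphaScreen; IC50 from curve fitting.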

human BRD4 bromodomain I = target: T2, human BRD4 bromodomain I (Homo sapiens, UniProt O60885); experiment: Bromodomain binding assay (AlphaScreen), BRD4 BDI; settings: Table C1
T2 construct: human BRD4 bromodomain I [residues 44-170]; host or cells: E. coli
Description: Bromodomain Binding Assay
The bromodomain binding assay utilizes AlphaScreen technology. Compounds compete with a biotinylated peptide ligand (from histone H4: aa 1-21, K5/K8/K12/K16Ac-biotin) for binding to a hexahistidine (His6)-tagged bromodomain. Peptide binding is detected by fluorescence signal after singlet oxygen energy transfer from peptide-bound AlphaScreen streptavidin-coated donor beads to His6-tagged bromodomain-bound nickel-chelate acceptor beads (PerkinElmer). Briefly, 8 μL 2.5× bromodomain (E. coli expressed, N-terminal His6-tagged human BRD4 bromodomain II [based on Genbank NM_058243, residues 349-460] or N-terminal His6-tagged human BRD4 bromodomain I [residues 44-170]) in reaction buffer (50 mM HEPES [pH 7.5], 100 mM NaCl, 0.05% CHAPS, 0.1% BSA, 1% DMSO) is added to wells of an assay plate (384-well low flange white, flat bottom, polystyrene microplate, Corning #3572; buffer only is added to some wells as a negative control). A compound concentration series (10 concentrations, 3-fold serial dilutions previously prepared in 100% DMSO, or 100% DMSO only negative control) is delivered to the assay plate with an Echo 550 acoustic liquid handler (Labcyte), followed by plate centrifugation and incubation for 30 minutes at room temperature. Then 4 μL 5× biotinylated peptide ligand is added, followed by plate centrifugation and gentle shaking for 30 minutes at room temperature to mix. After this incubation, 4 μL 5× donor beads are added, and the plate is centrifuged, followed by brief gentle shaking to mix. Finally, 4 μL 5× acceptor beads are added, and the plate is centrifuged, followed by gentle shaking for 60 minutes at room temperature in the dark. AlphaScreen signal (excitation/emission: 680 nm/520-620 nm) is detected with an EnSpire multimode plate reader (PerkinElmer). Percentage peptide binding is plotted as a function of concentration, and curve fitting is used to determine competitive compound binding ICsos.

[2] = system: human SKM-1 acute myeloid leukemia cells; experiment: SKM-1 antiproliferation cell-based assay (ATPlite); settings: Homo sapiens
In short: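 Log-phase cells in RPMI 1640/15% FBS were seeded at 34722 cells/mL and exposed for 4 days to nine-concentration DMSO serial dilutions in triplicate. Viability was read as ATP luminescence (ATPlite 1step), and IC50 values came from variable-slope non-linear regression.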

[3] = AlphaScreen assay, Table C1, read-out: BRD4 BDII IC50
[4] = AlphaScreen assay, Table C2, read-out: BRD4 BDII IC50
[5] = SKM-1, 96 h, SKM-1 antiproliferation assay, 4 days, Table C2
[6] = BRD4 BDII AlphaScreen assay, read-out: BRD4 BD2 IC50
[7] = SKM-1, SKM-1 antiproliferation assay

SMILES | IC50 [1, 3] [nM] | IC50 [1, 4] [nM] | IC50 (human BRD4 bromodomain I) [nM] | GI50 [2, 5] [nM] | IC50 [1, 6] [nM] | GI50 [2, 7] [nM]
CC(=O)Nc1ccc(-c2cccc(-c3cccc(N4CCNCC4)c3)c2O)cc1F [Example 109, N-(3-Fluoro-2′-hydroxy-3″-(piperazin-1-yl)-[1,1′:3′,1″-terphenyl]-4-yl)acetamide] | 1 to 10 | 1 to 10 | > 100 | 300 to 3000 |  | 
CC(=O)Nc1ccc(-c2cccc(-c3ccnc(N4CCNCC4)c3)c2O)cc1F [Example 163, N-(3-fluoro-2′-hydroxy-3′-(2-(piperazin-1-yl)pyridin-4-yl)-[1,1′-biphenyl]-4-yl)acetamide] | 1 to 10 | 1 to 10 | > 100 | 30 to 300 |  | 
C[C@@H]1CN(c2cc(-c3cc(F)cc(-c4ccc(-n5ccn(C)c5=O)c(Cl)c4)c3O)ccn2)CCN1 [Example 413, (R)-1-(3-chloro-5′-fluoro-2′-hydroxy-3′-(2-(3-methylpiperazin-1-yl)pyridin-4-yl)-[1,1′-biphenyl]-4-yl)-3-methyl-1H-imidazol-2(3H)-one] | 0.01 to 1 | 0.01 to 1 | > 100 | 0.3 to 30 |  | 
Cn1ccn(-c2ccc(-c3cc(F)cc(-c4ccnc(N5CCNCC5)c4)c3O)cc2Cl)c1=O [Example 365, 1-(3-chloro-5′-fluoro-2′-hydroxy-3′-(2-(piperazin-1-yl)pyridin-4-yl)-[1,1′-biphenyl]-4-yl)-3-methyl-1H-imidazol-2(3H)-one] | 1 to 10 | 1 to 10 | > 100 | 0.3 to 30 |  | 
CC(=O)Nc1ccc(-c2cccc(-c3cccc(N4CCOCC4)c3)c2O)cc1F [Example 95, N-(3-Fluoro-2′-hydroxy-3″-morpholino-[1,1′:3′,1″-terphenyl]-4-yl)acetamide] | 10 to 100 | 10 to 100 | > 100 |  |  | 
CC(=O)Nc1ccc(-c2cccc(-c3cccc(N4CCNCC4)c3)c2O)cc1Cl [Example 171, N-(3-chloro-2′-hydroxy-3″-(piperazin-1-yl)-[1,1′:3′,1″-terphenyl]-4-yl)acetamide] | 1 to 10 | 1 to 10 | > 100 |  |  | 
CC(=O)Nc1ccc(-c2cccc(-c3cc(N4CCN(C)CC4)no3)c2O)cc1 [Example 6, N-(2′-Hydroxy-3′-(3-(4-methylpiperazin-1-yl)isoxazol-5-yl)-[1,1′-biphenyl]-4-yl)acetamide] | 10 to 100 | 10 to 100 | > 100 |  |  | 
CC(=O)Nc1ccc(-c2cccc(-c3cc(N4CCNCC4)no3)c2O)cc1 [Example 3, N-(2′-Hydroxy-3′-(3-(piperazin-1-yl)isoxazol-5-yl)-[1,1′-biphenyl]-4-yl)acetamide] | 10 to 100 | 10 to 100 | > 100 |  |  | 
CN1CCN(c2ccc(-c3cc(F)cc(-c4ccnc(N5CCNCC5)c4)c3O)cc2Cl)C1=O [Example 297, 1-(3-chloro-5′-fluoro-2′-hydroxy-3′-(2-(piperazin-1-yl)pyridin-4-yl)-[1,1′-biphenyl]-4-yl)-3-methylimidazolidin-2-one] | 1 to 10 | 1 to 10 | > 100 | 30 to 300 |  | 
CN1CCN(c2ccc(-c3cccc(-c4ccnc(N5CCNCC5)c4)c3O)cc2Cl)C1=O [Example 245, 1-(3-Chloro-2′-hydroxy-3′-(2-(piperazin-1-yl)pyridin-4-yl)-[1,1′-biphenyl]-4-yl)-3-methylimidazolidin-2-one] | 1 to 10 | 1 to 10 | > 100 | 30 to 300 |  | 
Cn1ccn(-c2ccc(-c3cc(F)cc(-c4cncc(N5CCC(N)CC5)c4)c3O)cc2Cl)c1=O [Example 459, 1-(3′-(5-(4-aminopiperidin-1-yl)pyridin-3-yl)-3-chloro-5′-fluoro-2′-hydroxy-[1,1′-biphenyl]-4-yl)-3-methyl-1H-imidazol-2(3H)-one] |  | 1 to 10 |  | 0.3 to 30 |  | 
CNc1ncc(-c2nc(C)cc(-c3ccc(-n4ccn(C)c4=O)c(Cl)c3)c2O)cc1N1CCC2(CCCN2C(C)C)C1 (centres unmarked) [Example 985, 1-(2-chloro-4-(3-hydroxy-5′-(1-isopropyl-1,7-diazaspiro[4.4]nonan-7-yl)-6-methyl-6′-(methylamino)-[2,3′-bipyridin]-4-yl)phenyl)-3-methyl-1H-imidazol-2(3H)-one] |  |  |  |  | 1 to 10 | 0.3 to 30
CC(=O)Nc1ccc(-c2cccc(-c3ccnc(N4CC5(CNC5)C4)c3)c2O)cc1Cl [Example 283, N-(3′-(2-(2,6-diazaspiro[3.3]heptan-2-yl)pyridin-4-yl)-3-chloro-2′-hydroxy-[1,1′-biphenyl]-4-yl)acetamide] |  | 10 to 100 |  | 300 to 3000 |  | 
O=C1CCCN1c1ccc(-c2cccc(-c3cncc(N4CCNCC4)c3)c2O)cc1F [Example 249, 1-(3-fluoro-2′-hydroxy-3′-(5-(piperazin-1-yl)pyridin-3-yl)-[1,1′-biphenyl]-4-yl)pyrrolidin-2-one] |  | 1 to 10 |  | 30 to 300 |  | 
COCC(C)(C)N1CCN(c2cc(-c3cc(F)cc(-c4ccc(-n5ccn(C)c5=O)c(Cl)c4)c3O)ccn2)CC1 [Example 724, 1-(3-chloro-5′-fluoro-2′-hydroxy-3′-(2-(4-(1-methoxy-2-methylpropan-2-yl)piperazin-1-yl)pyridin-4-yl)-[1,1′-biphenyl]-4-yl)-3-methyl-1H-imidazol-2(3H)-one] |  | 0.01 to 1 |  | 0.3 to 30 |  | 
CC(C)N1CCCC12CCN(c1cc(-c3cc(F)cc(-c4ccc(-n5ccn(C)c5=O)c(Cl)c4)c3O)ccn1)C2 (centres unmarked) [Example 751, 1-(3-chloro-5′-fluoro-2′-hydroxy-3′-(2-(1-isopropyl-1,7-diazaspiro[4.4]nonan-7-yl)pyridin-4-yl)-[1,1′-biphenyl]-4-yl)-3-methyl-1H-imidazol-2(3H)-one] |  | 1 to 10 |  | 0.3 to 30 |  | 
COc1ncc(-c2cc(F)cc(-c3ccc(-n4ccn(C)c4=O)c(Cl)c3)c2O)cc1N1CC[C@]2(CCN2C(C)C)C1 [Example 903] |  |  |  |  | 0.01 to 1 | 0.3 to 30
CC(=O)Nc1ccc(-c2cc(F)cc(-c3ccc(C#N)c(N4CCNCC4)c3)c2O)cc1F [Example 235, N-(4″-cyano-3,5′-difluoro-2′-hydroxy-3″-(piperazin-1-yl)-[1,1′:3′,1″-terphenyl]-4-yl)acetamide] |  | 1 to 10 |  | 30 to 300 |  | 
Cn1ccn(-c2ccc(-c3cc(F)cc(-c4cccc(C5(N)CC5)c4)c3O)cc2Cl)c1=O [Example 803, 1-(3″-(1-aminocyclopropyl)-3-chloro-5′-fluoro-2′-hydroxy-[1,1′:3′,1″-terphenyl]-4-yl)-3-methyl-1H-imidazol-2(3H)-one] |  | 1 to 10 |  | 30 to 300 |  | 
Cn1ccn(-c2ccc(-c3cc(F)cc(-c4ccnc(N5CC(C)(O)C(F)(F)C5)c4)c3O)cc2Cl)c1=O (centres unmarked) [Example 861] |  |  |  |  | 1 to 10 | 0.3 to 30
CC(=O)N1CCN(c2ccc(-c3cc(F)cc(-c4ccnc(N5CCNCC5)c4)c3O)cc2Cl)C1=O [Example 381, 1-acetyl-3-(3-chloro-5′-fluoro-2′-hydroxy-3′-(2-(piperazin-1-yl)pyridin-4-yl)-[1,1′-biphenyl]-4-yl)imidazolidin-2-one] |  | > 100 |  | 300 to 3000 |  | 
CN1CCN(c2ccc(-c3cc(F)cc(-c4cc(N5CCNCC5)c5cn[nH]c5c4)c3O)cc2Cl)C1=O [Example 458, 1-(3-chloro-5′-fluoro-2′-hydroxy-3′-(4-(piperazin-1-yl)-1H-indazol-6-yl)-[1,1′-biphenyl]-4-yl)-3-methylimidazolidin-2-one] |  | 1 to 10 |  | 0.3 to 30 |  | 
COC(=O)c1ncc(-c2cc(F)cc(-c3ccc(N4CCN(C)C4=O)c(Cl)c3)c2O)cc1N1CCNCC1 [Example 376, Methyl 5-(3′-chloro-5-fluoro-2-hydroxy-4′-(3-methyl-2-oxoimidazolidin-1-yl)-[1,1′-biphenyl]-3-yl)-3-(piperazin-1-yl)picolinate] |  | > 100 |  | ≥ 3000 |  | 
